# Measurements as given in US20090253134A1, “Cellular Pyrogen Test” (Fraunhofer-Gesellschaft zur Forderung der angewandten …, priority 2006, published 2009).
# “Also recorded” adds a separate entry of the source.
# Experiments:
# TLR-5 [1] = target: T1, TLR-5 (Homo sapiens, UniProt O60602); assay: NIH-3T3 TLR-5 SEAP reporter gene test; assay type: cell-based; design: expressed in transfected cells; host or cells: NIH-3T3 (murine fibroblasts); conditions: 2 μg/mL flagellin; BCIP
# Protocol: The cell line NIH-3T3 was transfected with TLR-5 and the reporter gene plasmid SEAP. The measures correspond to example 1.
# NIH-3T3 clone TLR-5 was inoculated in a density of 30,000 to 200,000 cells/well (24-well) in 500 μL/well in 0.5% FCS medium; induction occurs with 2 μg/mL flagellin; detection by incubation with 300 μL/well detection medium with BCIP.
# TLR-5 [2] = target: T1, TLR-5; assay: Comparative TLR-5 test with HELA cells transfected with TLR-5 SEAP; assay type: cell-based; design: expressed in transfected cells; conditions: 2 μg/mL flagellin; induced and noninduced controls both intensely blue
# Protocol: FIG. 13 comparative experiment: TLR-5 test with HELA cells transfected with TLR-5 SEAP induced with 2 μg/mL flagellin; both the induced cells and the noninduced controls show intense blue coloration.
# human whole blood cells = conditions: cited from earlier work
# TLR-4/CD14 [3] = target: T2, TLR-4/CD14 (Homo sapiens, UniProt O00206); assay: Comparative TLR-4 colour test with HEK blue 293 and other 293 fibroblasts transfected with TLR-4/CD14 SEAP; assay type: cell-based; conditions: 100 ng/mL LPS; induced and noninduced controls both turn blue
# T2 construct: expressed in transfected cells; host or cells: HEK blue 293 and other 293 cells (clones K2, K4)
# T2 sequence (O00206 24-839): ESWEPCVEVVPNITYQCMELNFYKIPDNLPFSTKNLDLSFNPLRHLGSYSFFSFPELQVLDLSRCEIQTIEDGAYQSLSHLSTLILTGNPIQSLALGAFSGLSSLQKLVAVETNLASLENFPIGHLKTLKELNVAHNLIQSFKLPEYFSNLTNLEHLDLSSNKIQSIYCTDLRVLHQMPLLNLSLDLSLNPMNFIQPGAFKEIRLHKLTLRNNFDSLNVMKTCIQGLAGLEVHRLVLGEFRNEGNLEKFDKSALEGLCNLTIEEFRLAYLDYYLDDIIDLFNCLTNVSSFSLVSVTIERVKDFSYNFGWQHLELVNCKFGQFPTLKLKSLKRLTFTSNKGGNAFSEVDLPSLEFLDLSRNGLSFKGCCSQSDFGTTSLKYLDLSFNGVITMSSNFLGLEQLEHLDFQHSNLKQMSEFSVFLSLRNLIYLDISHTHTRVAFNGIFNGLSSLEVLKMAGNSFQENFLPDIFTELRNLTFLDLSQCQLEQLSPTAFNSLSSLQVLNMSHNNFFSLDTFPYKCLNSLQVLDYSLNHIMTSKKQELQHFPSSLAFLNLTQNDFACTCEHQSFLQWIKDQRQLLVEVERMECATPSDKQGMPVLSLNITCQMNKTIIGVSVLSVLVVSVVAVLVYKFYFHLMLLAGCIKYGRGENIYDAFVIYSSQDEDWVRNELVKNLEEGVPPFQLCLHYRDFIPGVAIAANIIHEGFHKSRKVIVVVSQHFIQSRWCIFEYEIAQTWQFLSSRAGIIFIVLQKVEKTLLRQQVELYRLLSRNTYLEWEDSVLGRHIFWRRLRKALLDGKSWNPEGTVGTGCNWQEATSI
# Protocol: (§1) HEK blue 293 fibroblasts and other 293 fibroblasts were transfected with TLR-4/CD14 SEAP and induced with 100 ng/mL LPS. All other process parameters were chosen as in example 1 according to the invention.
# TLR-4/CD14 [4] = target: T2, TLR-4/CD14; assay: SDS-PAGE/Western Blot analysis of SEAP expression in HEK293 and other 293 cells transfected with TLR-4/CD14 SEAP; assay type: cell-based; conditions: 100 ng/mL LPS; cell pellets
# Protocol: as §1
# In addition, a Western Blot analysis of gene expression was conducted in known fashion: first antibody: anti-SEAP; conjugated second antibody: anti-mouse POD; marker: SeeBlue® Plus2; prestained standard.
# [5] = system: Limulus amebocyte lysate proenzyme; conditions: cited from earlier work
# TLR-4/CD14 [6] = target: T3, TLR-4/CD14 (Homo sapiens, UniProt O00206+Q9Y6Y9); assay: NIH-3T3 TLR-4/CD14 SEAP reporter gene pyrogen test; assay type: cell-based
# T3 construct: expressed in transfected cells; host or cells: NIH-3T3 (murine fibroblasts), clone 4/5
# T3 sequence (O00206 24-839): as above
# T3 sequence (Q9Y6Y9 17-160 limits assumed): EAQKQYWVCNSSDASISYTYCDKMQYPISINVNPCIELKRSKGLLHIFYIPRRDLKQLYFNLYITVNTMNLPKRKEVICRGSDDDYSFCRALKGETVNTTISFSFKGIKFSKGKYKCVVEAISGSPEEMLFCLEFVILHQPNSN
# Text: The cell line NIH-3T3 was transfected with a TLR-4/CD14 complex as well as the reporter gene plasmid SEAP/ELAM-1.
# The endotoxin (LPS)-mediated induction of TLR-4 leads according to a signal cascade to activation of the transcription factor NF-κB. Expression of the reporter gene SEAP is controlled by an ELAM-1 promoter inducible by NF-κB. NF-κB activation and therefore specifically secretion of SEAP then occurs on induction of TLR-4 by the endotoxin lipopolysaccharide LPS.
# NIH-3T3 TLR-4/CD14 clone 4/5 P35 in a density of 30,000 to 200,000 cells/well (24-well) (corresponding cell count for other well volume) are inoculated in 500 μL/well in 0.5% FCS medium o/n for adhesion.
# On the next day detection occurs by incubation with 300 μL/well detection medium, which is added directly to the induced cells: in the induced cells SEAP activity converts the substrate BCIP in the detection medium to a dark blue insoluble end product (indigo). As an alternative SEAP activity in the induced cells converts the substrate pNPP in the detection medium to a light yellow soluble color complex, which is determined photometrically at about 405 nm. The photometric analysis occurs about 2 hours after addition of the detection medium.
# In one variant transfected cell lines are frozen in the corresponding assay format, here: a cell culture-well-plate (multiwell plate) in corresponding density (200,000 cells/well in 500 μL each (in 24-well)).
# After thawing of the kit, addition of DMEM culture medium occurs for adhesive of the cells overnight. A medium with HEPES buffer permits incubation of the cell test in a heating cabinet, i.e., without CO2 gassing. Induction is carried out per test by addition of 100 ng/mL LPS. The detection is conducted after 24 hours by addition of 300 μL/well BCIP detection medium.
# On a multiwell plate (96-well) NIH-3T3 TLR-4/CD14 SEAP P40 cells were frozen in a density of 30,000 cells/well in 100 μL medium (DMEM 80 mmol/L HEPES, 30% FCS and 5% DMSO) in suspension at −80° C.
# After 72 hours to 4 weeks at −80° C. the cells were thawed by addition of 100 μL medium (10% FCS) at 37° C. […]
# T1 sequence (O60602 21-858): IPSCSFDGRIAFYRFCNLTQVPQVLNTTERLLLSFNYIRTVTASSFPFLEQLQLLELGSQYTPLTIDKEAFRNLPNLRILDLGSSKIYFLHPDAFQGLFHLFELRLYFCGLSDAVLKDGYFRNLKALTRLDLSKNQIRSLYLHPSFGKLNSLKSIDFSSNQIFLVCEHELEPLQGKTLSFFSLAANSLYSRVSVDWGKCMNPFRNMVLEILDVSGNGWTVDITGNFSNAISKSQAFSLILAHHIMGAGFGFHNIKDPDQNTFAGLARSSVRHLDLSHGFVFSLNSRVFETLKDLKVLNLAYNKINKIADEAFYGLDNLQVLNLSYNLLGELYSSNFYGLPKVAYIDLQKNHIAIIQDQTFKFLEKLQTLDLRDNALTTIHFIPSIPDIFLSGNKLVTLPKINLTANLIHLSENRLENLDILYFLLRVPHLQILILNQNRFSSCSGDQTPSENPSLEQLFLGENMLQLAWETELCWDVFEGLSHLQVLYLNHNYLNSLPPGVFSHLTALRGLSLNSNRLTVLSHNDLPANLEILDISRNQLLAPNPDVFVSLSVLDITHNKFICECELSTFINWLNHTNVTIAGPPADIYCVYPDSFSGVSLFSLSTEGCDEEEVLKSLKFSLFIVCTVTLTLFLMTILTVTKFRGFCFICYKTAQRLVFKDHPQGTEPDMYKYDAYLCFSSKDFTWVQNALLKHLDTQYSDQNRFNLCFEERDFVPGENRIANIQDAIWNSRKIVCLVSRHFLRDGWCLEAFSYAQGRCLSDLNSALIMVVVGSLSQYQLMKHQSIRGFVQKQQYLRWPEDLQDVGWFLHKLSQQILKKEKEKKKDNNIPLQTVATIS
substance,measurement,setting,value
flagellin,blue coloration of induced cells,TLR-5 [1],specific blue coloration
same,specific induction / color test,TLR-5 [2],No specific induction is possible
lipopolysaccharide [LPS],sensitivity of IPT,human whole blood cells,20 to 50 pg/mL
same,specific induction / color test,TLR-4/CD14 [3],no specific induction; also recorded: a specific detection is not possible
same,"alkaline phosphatase (SEAP) expression, induced vs noninduced cells",TLR-4/CD14 [4],in the same amount
same,detection limit / sensitivity of LAL,[5],3 pg/mL
same,"blue coloration of induced cells, frozen and rethawed cells","TLR-4/CD14 [6]; 100 pg/mL, NIH-3T3 TLR-4/CD14 SEAP P40, induction after 24 hours, detection after 3 hours",specific blue coloration
same,"SEAP activity, BCIP color reaction after thawing","TLR-4/CD14 [6]; 100 ng/mL LPS, thawed NIH-3T3 clone 4/5 TLR-4/CD14, BCIP",deep dark blue
Poly IC,color change of detection medium (specificity),TLR-4/CD14 [6]; induced with 25 μg/mL nonspecific pyrogen each,no color change
